# How the values were obtained:
# [1] = system: influenza virus sialidase; conditions: cited from earlier work; for IC50: read-out: IC50 for influenza virus sialidase inhibition
# [2] = target: T1, bacterial sialidase (Micromonospora viridifaciens) (Micromonospora viridifaciens, UniProt Q02834); assay: Inhibition of bacterial sialidase (Micromonospora viridifaciens), fluorescence assay with MUN; assay type: biochemical; conditions: 10 mM inhibitor, 0.1 mM MUN, pH 6.0, 37° C., 15 minutes
# T1 sequence (Q02834 38-647): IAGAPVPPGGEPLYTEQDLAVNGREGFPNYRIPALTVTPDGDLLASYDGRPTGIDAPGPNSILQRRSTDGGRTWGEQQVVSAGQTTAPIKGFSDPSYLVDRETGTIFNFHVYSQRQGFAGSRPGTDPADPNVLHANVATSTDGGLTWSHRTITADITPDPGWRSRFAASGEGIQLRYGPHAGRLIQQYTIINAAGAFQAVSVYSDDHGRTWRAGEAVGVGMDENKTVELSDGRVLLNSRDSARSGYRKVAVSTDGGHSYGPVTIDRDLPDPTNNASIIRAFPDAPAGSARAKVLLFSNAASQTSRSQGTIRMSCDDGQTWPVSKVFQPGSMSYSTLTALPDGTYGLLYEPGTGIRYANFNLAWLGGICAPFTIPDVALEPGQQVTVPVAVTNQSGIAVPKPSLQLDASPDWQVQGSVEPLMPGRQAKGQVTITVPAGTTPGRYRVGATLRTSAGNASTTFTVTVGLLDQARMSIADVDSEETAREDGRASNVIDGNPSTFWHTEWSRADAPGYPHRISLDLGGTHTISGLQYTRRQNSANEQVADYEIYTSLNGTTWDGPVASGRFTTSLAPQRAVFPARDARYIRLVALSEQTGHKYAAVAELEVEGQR
# [3] = system: S. typhimurium sialidase; conditions: substrate of S. typhimurium sialidase; cited from earlier work
# [4] = target: S. typhimurium sialidase; conditions: cited from earlier work
compound,measurement,setting,value
CC(=O)N[C@H]1[C@H]([C@H](O)[C@H](O)CO)OC(C(=O)O)=C[C@@H]1N=C(N)N [4-guanidino-Neu5Ac2en],inhibition selectivity for influenza virus sialidase versus bacterial sialidases,[1]; influenza virus versus bacterial sialidases,inhibition selectivity of 4-guanidino-Neu5Ac2en for influenza virus sialidase versus bacterial sialidases
"CC(=O)Nc1c(O)cc(C(=O)O)cc1[N+](=O)[O-] [HNBA, 4-acetylamino-3-hydroxyl-5-nitro-benzoic acid]",inhibition of type A and B influenza virus sialidase (in words),[1]; both type A and B,potent inhibitors
same,inhibition of influenza virus sialidase (in words),[1],millimolar
same,IC50,[1],~10 mM
same,inhibition of bacterial sialidase (in words),[2],inhibited bacterial sialidase with efficiencies similar to Neu5Ac2en
"CC(=O)NC1C(O)CC(Oc2ccc3c(C)cc(=O)oc3c2)(C(=O)O)OC1C(O)C(O)CO [MUN, 4-methylumbelliferyl-a-D-N-acetylneuraminic acid]",Km,[3],250 µM
same,turnover number,[3],"2,700 sec^-1"
CC(=O)N[C@H]1[C@H]([C@H](O)[C@H](O)CO)OC(C(=O)O)=C[C@@H]1O [Neu5Ac2en],Ki,[4],0.38 mM
same,IC50,[1],~10 mM
CC(=O)N[C@H]1[C@H]([C@H](O)[C@H](O)CO)OC(O)(C(=O)O)C[C@@H]1O (stereo partly shown) [Neu5Ac],inhibition by high levels of the cleavage product,"[4]; high levels, compared to influenza virus sialidase",do not inhibit the bacterial sialidase

# Reference: patent US5714509A, “Inhibitors of bacterial sialidase and methods of making and using the same” (The University of Alabama, priority 1995, dated 1998)
